The results in this text go back to ChEMBL document CHEMBL1142178, “Lysostaphin-resistant variants of Staphylococcus aureus demonstrate reduced fitness in vitro and in vivo” (2007).

Common to all, as to format: functional
In experiment [1] the test system is Staphylococcus aureus. Description: Antibacterial activity against methicillin-resistant Staphylococcus aureus Col.
Experiment [2] deals with Staphylococcus aureus. Description: Antibacterial activity against methicillin-resistant Staphylococcus aureus Col-LysoR.
Experiment [3] has as its system Staphylococcus aureus. Description: Antibacterial activity against methicillin-resistant Staphylococcus aureus MBT 5040.
For experiment [4], the system named is Staphylococcus aureus. Description: Antibacterial activity against methicillin-resistant Staphylococcus aureus MBT 5040-LysoR.
Experiment [5] has as its system Staphylococcus aureus. Briefly: Antibacterial activity against methicillin-resistant Staphylococcus aureus Col and Staphylococcus aureus Col-LysoR co-infected in CF1 mouse assessed as kidney infection after 7 days.
For experiment [6], the system named is Staphylococcus aureus. Briefly: Antibacterial activity against methicillin-resistant Staphylococcus aureus Col in CF1 mouse assessed as kidney infection after 7 days.
Experiment [7] concerns Staphylococcus aureus. Description: Antibacterial activity against methicillin-resistant Staphylococcus aureus MBT 5040 in CF1 mouse assessed as kidney infection after 7 days.
The subject of experiment [8] is Staphylococcus aureus. Briefly: Antibacterial activity against methicillin-resistant Staphylococcus aureus MBT 5040 and Staphylococcus aureus MBT 5040-LysoR co-infected in CF1 mouse assessed as kidney infection after 7 days.

Take `Cc1onc(-c2ccccc2)c1C(=O)N[C@@H]1C(=O)N2[C@@H]1SC(C)(C)[C@@H]2C(=O)[O-].[Na+]`: the MIC was > 32 mg/L in experiment [1], 0.25 mg/L in experiment [2], > 32 mg/L in experiment [3] and 0.25 mg/L in experiment [4].
In the case of `CCOc1ccc2ccccc2c1C(=O)N[C@@H]1C(=O)N2[C@@H]1SC(C)(C)[C@@H]2C(=O)O` [NAFCILLIN], the CFU is on record as 10780 in experiment [5], 9960 in experiment [6], 5630 in experiment [7] and 9520 in experiment [8].

In general, MIC refers to the lowest concentration found to suppress growth. A higher MIC goes with a less susceptible organism.
